The values that follow come from US10815379B2, “pH sensitive fluorescent probe” (The University of Tokyo, priority 2015, dated 2020).

Where two headings read alike, the source gives them in different places.

Broadly, the pKa is the pH at which an ionisable group is half protonated.

Data set [1] in a line: Optical characteristics (absorption, fluorescence, excitation spectra) in 100 mM sodium phosphate buffer. It counts as physicochemical. The settings on record: for absorption maximum / absorption wavelength, acidic pH: acidic solution; for absorption maximum / absorption wavelength, basic pH: basic solution. The method, then: The spectral characteristics of compound 1 of the present invention (2,6-diMe BnPiperaIndoSiR) were evaluated. The absorption spectrum, fluorescence spectrum, and excitation spectrum were measured using a Shimadzu UV-1650PC absorption spectrophotometer and a Hitachi F-4500 fluorometer.
(§1) FIG. 2a represents the assumed chemical equilibrium equation of 2,6-diMe BnPiperaIndoSiR. FIGS. 2b, 2c, and 2d respectively represent the absorption, fluorescence, and excitation spectra of 2,6-diMe BnPiperaIndoSiR in 100 mM sodium phosphate buffer (containing 1% DMSO) of different pH.
The spectral characteristics of compound 2 of the present invention (SiRpH3) were evaluated. The absorption spectrum fluorescence spectrum, and excitation spectrum were measured using a Shimadzu UV-1650PC absorption spectrophotometer and a Hitachi F-4500 fluorometer.
(§2) FIGS. 3a, 3b, and 3c represent the absorption, fluorescence, and excitation spectra of SiRpH3 in 100 mM sodium phosphate buffer (containing 1% DMSO) of different pH.
The spectral characteristics of compound 3 of the present invention (SiRpH4) were evaluated. The absorption spectrum fluorescence spectrum, and excitation spectrum were measured using a Shimadzu UV-1650PC absorption spectrophotometer and a Hitachi F-4500 fluorometer.
(§3) FIGS. 4a and 4b represent the absorption and excitation spectra of SiRpH4 in 100 mM sodium phosphate buffer (containing 1% DMSO) of different pH.
The spectral characteristics of compound 4 of the present invention (SiRpH5) were evaluated. The absorption spectrum fluorescence spectrum, and excitation spectrum were measured using a Shimadzu UV-1650PC absorption spectrophotometer and a Hitachi F-4500 fluorometer.
(§4) FIG. 5a represents the assumed chemical equilibrium equation of SiRpH5. FIGS. 5b and 5c represent the absorption and excitation spectra of SiRpH5 in 100 mM sodium phosphate buffer (containing 1%) DMSO) of different pH.

A short description of data set [2]: pKa of the protonation reaction from plot of absorbance or fluorescence intensity ratio vs. pH. In kind it is physicochemical. The conditions noted are these: for pKa of the protonation reaction: 100 mM sodium phosphate buffer, 1% DMSO. The protocol:
as §1, §2, §3, §4

The conditions of data set [3]: cited from earlier work.
Where [4] appears, read: Table 2, pH 3.0, 100 mM sodium phosphate buffer.
The mark [5] stands for this setting: Table 2, pH 7.4, 100 mM sodium phosphate buffer.
The mark [6] stands for this setting: Table 2, pH 10.0, 100 mM sodium phosphate buffer.
The mark [7] stands for this setting: pH 3.0, 100 mM sodium phosphate buffer.
Where [8] appears, read: pH 10.0, 100 mM sodium phosphate buffer.
[9] abbreviates: Table 3, pH 3.0, 100 mM sodium phosphate buffer.
Setting [10] is: Table 3, pH 10.0, 100 mM sodium phosphate buffer.

For `Cc1cccc(C)c1C1=c2cc3c(cc2[Si](C)(C)c2cc(N4CCN(Cc5cccc(F)c5)CC4)ccc21)=[N+](C)CC3.O=C(O)C(F)(F)F` [SiRpH3], in data set [1], the “lengthening of the absorption wavelength as the pH moved from acidic to basic” value is given as “approximately 80 nm”; the “absorption maximum / absorption wavelength, acidic pH” value is “approximately 580 nm”; the “absorption maximum / absorption wavelength, basic pH” value is reported as “approximately 660 nm”. Moreover, in data set [1] (setting [4]), the Absmax was found to be 585 nm, the E was 25,000 M^−1cm^−1, the Emmax is reported as 676 nm and the Φfl came out at 0.20. In addition, in data set [1] (setting [5]), the Absmax is given as 662 nm, the E is recorded as 30,000 M^−1cm^−1, the Emmax is reported as 688 nm and the Φfl was determined as 0.12. Moreover, in data set [1] (setting [6]), the Absmax is 663 nm, the E is reported as 31,000 M^−1cm^−1, the Emmax is reported as 689 nm and the Φfl was determined as 0.11.

For the compound `Cc1cccc(C)c1C1=c2cc3c(cc2[Si](C)(C)c2cc(N4CCN(Cc5ccccc5S(=O)(=O)O)CC4)ccc21)=[N+](C)CC3` [SiRpH4], the “shift of the pKa of the ratio value change” value in data set [2] is “shifted to the basic side in comparison to SiRpH3”.

Regarding “2′,7′-bis-(2-carboxyethyl)-5- (and -6-)carboxyfluoresceins [BCECF]”, the pKa in data set [3] is on record as 7.0.

As for `Cc1cccc(C)c1C1=c2cc3c(cc2[Si](C)(C)c2cc(N4CCN(Cc5ccccc5)CC4)ccc21)=[N+](C)CC3.O=C(O)C(F)(F)F` [2,6-diMe BnPiperaIndoSiR], in data set [1] (setting [7]), the Absmax was determined as 588 nm, the E is 26,000 M^−1 cm^−1, the Emmax turned out to be 676 nm and the Φfl is recorded as 0.19. Moreover, in data set [1] (setting [8]), the Absmax is reported as 663 nm, the E is given as 33,000 M^−1 cm^−1, the Emmax is listed as 689 nm and the Φfl is given as 0.12. The “decrease of pKa in comparison to 2-Me MePiperaIndoSiR” value in data set [2] (by benzylation of the piperazine aliphatic amino group) was 0.9. The “pKa of the protonation reaction” value in data set [2] (from changes in absorbance at 663 nm when the pH was varied) stood at 6.4.

For the compound `Cc1cc(C(=O)O)cc(C)c1C1=c2cc3c(cc2[Si](C)(C)c2cc(N4CCN(Cc5ccc(S(=O)(=O)O)cc5S(=O)(=O)O)CC4)ccc21)=[N+](C)CC3.O=C([O-])C(F)(F)F` [SiRpH5], in data set [1] (setting [9]), the Λem worked out at 679 nm, the Λex was 588 nm, the Φfl is given as 0.21 and the ε is listed as 23,000 M^−1cm^−1. Further, in data set [1] (setting [10]), the Λem amounted to 690 nm, the Λex worked out at 668 nm, the Φfl turned out to be 0.08 and the ε was 33,000 M^−1cm^−1. In addition, in data set [1], the “absorption maximum / absorption wavelength, acidic pH” value is reported as “approximately 590 nm” and the “absorption maximum / absorption wavelength, basic pH” value is reported as “approximately 670 nm”. Moreover, the “pKa of the protonation reaction” value in data set [2] (from plot of fluorescence intensity ratio (700 nm, excitation 580 nm / 663 nm) vs. pH) was found to be 6.1. Moreover, the “shift of the pKa of the ratio value change” value in data set [2] (in comparison to the named probe) was “shifted to the acidic side in comparison to SiRpH4”.
